Test results: patent US20180235870A1, “TRANSDERMAL FORMULATIONS FOR DELIVERY OF BERBERINE COMPOUNDS, AND THEIR USE IN THE TREATMENT OF BERBERINE-RESPONSIVE DISEASES AND CONDITIONS” (DELIVRA INC., priority 2015, published 2018)
“Also recorded” adds a separate entry of the source.

Experiments:
[1] = tested on: PCSK9 expression in HEPG2 cells; experiment: Berberine signaling in HEPG2: PCSK9 western blot of supernatant; format: cell-based, human; conditions: 24 hours; for expression of PCSK9 in supernatant (western blot): 25 to 3.125 ug/ml, versus negative control
Experimental: HEPG2 cells were cultured in 24 well plates to confluence in DMEM supplemented with 10% FBS. After reaching confluence, cells were incubated overnight with 0.1% FBS OPTIMEM for serum starvation. After serum starvation the cells were incubated with berberine, DHB, or THB in 0.1% FBS OPTIMEM using the following dose course: 25 ug/ml, 12.5 ug/ml 6.25 ug/ml 3.125 ug/ml for 24 hours. Supernatant was collected after stimulation and western blotted as follows:
(1) Resolved on 12.5% gel.
(3) Blocked with 3% BSA TBST (4) Rabbit anti PCSK9 (Cayman chemicals cat 10007185) at 1/600 in TTBS (5) Wash 3×5 min with TTBS (6) HRP-Goat anti-Rabbit 1/1000 (Cayman chemicals) (7) Wash 3×5 min with TTBS (8) Detection with ECL
Proprotein convertase subtilisin/kexin type 9 (PCSK9) post-transcriptionally downregulates the low-density lipoprotein receptor (LDLR) by binding to the receptor's epidermal growth factor repeat A on the cell surface and shuttling the LDLR to the lysosomes for degradation. […] Previous reports indicate that berberine has lipid lowering effects in both animal models and human trials (Arrigo F. G., Cicero, L., Rovati C. et al., 2007). The signalling effects of berberine, DHB, and THB were evaluated using the human liver cell line HEPG2. PCSK9, an enzyme that acts in cholesterol homeostasis, is expressed in HEPG2 cells and these cells have previously been used as a model of dyslipidemia. PCSK9 binds to LDL receptor causing uptake of LDL and the LDL receptor and targets both molecules for degradation upon internalization. In the absence of PCSK9, LDL and LDL receptor are still internalized, however, LDL receptor is not degraded but instead recycled to the cell surface resulting in more efficient uptake of circulating LDL.

[2] = Stability of synthetic derivatives DHB and THB in solution (UV/VIS); format: physicochemical; conditions: for stability over time (oxidation to berberine): several solvents
Source text: UV/VIS spectrometry is a useful tool for monitoring the conversion of DHB to berberine in solution. Several anti-oxidants and encapsulating agents were combined with DHB in solution to increase stability.

[3] = Solubility testing of berberine and dihydroberberine using various solvents; format: physicochemical
Experimental: Solubility was determined in a step-wise procedure that involved attempting to dissolve the berberine/DHB in the solvents at relatively high concentrations. […] Then the expected solvent was added to the berberine/DHB. The container was sonicated at RT or at 40C for 30 minutes. The following solvents were tested to dissolve the DHB. Dimethyl sulfoxide (Reagent Grade; […] Lot #STB[…]), and Glycerol tributyrate (Sigma T8626; Lot #BCBQ […]). […] The solubility was visually checked and state of solubility was recorded.

[4] = tested on: male Zucker fa/fa rat, a model of type 2 diabetes and metabolic disorder; experiment: Efficacy of transdermal berberine alone and in combination with pharmaceuticals in a model of metabolic syndrome (Example 19); format: in vivo, obese male Zucker fa/fa rats; conditions: Zucker fa/fa rats
Experimental: Fourteen obese male Zucker fa/fa rats at 5 weeks of age were housed for five weeks to the age of 10 weeks. During these five weeks, body weight measurements were taken once a week and once daily health observations were conducted for all animals. […] On Day 28, serum and whole liver was collected. […] Food and water intake measurements were taken once a week during the study period of Day 0 to Day 28. […] A sufficient amount of test article was supplied and formulated. Test article product was administered at a dose of 3.6 g/kg twice a day (e.g. […] Berberine cream was weighed fresh daily at each AM and PM dosing to avoid desiccation of the test article. Daily PO and TD dosing of the test articles took place between the hours of 08:00 to 10:00 and 16:00 to 18:00 for 7 days a week between Day 0 to 27. […] The exact time of dosing (up to the minute) was recorded for each animal on the daily dosing sheets. […] Remaining dosing solutions were stored at 4° C. between dosing periods. […] The animals shaved underwemt gaseous anaesthetic according to SOP ROD28.01 to ensure accuracy and avoid undue stress of the animal. The area was further shaven as needed over the course of the dosing period to ensure accurate drug application and absorption. At dosing, the animals were restrained and the transdermal test articles were applied in a uniform layer over the entire shaved area. […] PTS3028).

[5] = tested on: male Zucker rat, a model of type-2 diabetes and metabolic disorder; experiment: Effect of berberine, metformin and simvastatin on body mass, lipid biomarkers, food and water intake, clinical chemistry (Example 18); format: in vivo, obese male Zucker fa/fa rats; conditions: Zucker rats, Days 0 to 28
Experimental: All in vivo animal husbandry, treatment regiments, and sample collections were completed by InterVivo. The study was completed using obese male Zucker fa/fa rats (Charles River) at 10 weeks of age. […] Shaving was performed under anaesthesia one day prior to initiation of test article administration. The area was further shaven, as needed, over the course of the dosing period to ensure accurate drug application and absorption. For dosing procedures, animals were restrained and the transdermal test articles applied in a uniform layer over the entire shaved area. The shaved administration area was cleaned daily with paper towel before the subsequent transdermal dose was administered. Animals receiving test articles via oral gavage were restrained, and a ball-tipped gavage needle (18G) attached to a syringe containing the dosing solution was first inserted into the mouth, and then into the stomach. To determine the appropriate depth of insertion of the needle, the position corresponding to the last rib was measured prior to insertion. […] Group A), oral administration of berberine (180 mg/kg/dose; […] Group C), and oral administration of the vehicle (Group D) (Table 19). […] Group F), or with orally-administered metformin (200 mg/kg/dose; Group G). […] On Day 28, the animals were dosed in the morning only, prior to euthanasia and tissue collection. Animal body weights were performed once weekly from Day −34 to −2 and daily from Day −1 to 28. Rats were weighed, and the scales were operated and maintained, according to standard operating procedures. Food and water consumption measurements were taken over a 24 hour period, once weekly, from Days 0 to 28. Blood was collected via tail nick on Day-1 to determine unfasted blood glucose level for group allocation. Whole blood was collected via the saphenous vein or other appropriate route on Days 0, 7, 14, 21 and 28 immediately prior to test article administration. […] On Day 28, subjects were anaesthetized with isoflurane, and whole blood was collected via cardiac puncture 2.5 hours (+/−5 minutes) following treatment administration on this day. […]

[6] = Plasma concentrations of berberine, berberine glucuronide, simvastatin and simvastatin hydroxy acid in rats (Example 20); format: in vivo; conditions: rats (n=2); oral simvastatin 6 mg/kg/dose
[7] = averaged over the entire experiment

COc1ccc2c(c1OC)CN1CCc3cc4c(cc3C1=C2)OCO4 [DHB, dihydroberberine]
concentration down to which expression of PCSK9 was reduced [1]: 6.25 µg/mL
expression of PCSK9 in supernatant (western blot) [1]: down-regulate the expression of PCSK9; also recorded: reduce the expression of PCSK9
oxidation of DHB to berberine on addition of ascorbic acid or cyclodextrin ([2]; UV/VIS): significantly slowed
stability over time (oxidation to berberine) [2]: prone to oxidation to provide berberine after a short time
Dissolving Capability ([3]; Acetone, sonication 40 C.): 25.0 mg/mL
Dissolving Capability ([3]; Acetone, sonication RT): 12.5 mg/mL
Dissolving Capability ([3]; Dimethyl sulfoxide (DMSO), sonication 40 C.): 50.0 mg/mL
Dissolving Capability ([3]; Dimethyl sulfoxide (DMSO), sonication RT): 25.0 mg/mL
Dissolving Capability ([3]; Ethanol, sonication 40 C.): 2.5 mg/mL
Dissolving Capability ([3]; Ethanol, sonication RT): 1.0 mg/mL
Dissolving Capability ([3]; Glycerol tributyrate, sonication 40 C.): 75 to 250 mg/mL
Dissolving Capability ([3]; Glycerol tributyrate, sonication RT): 10 mg/mL
Dissolving Capability ([3]; Hexylene glycol, sonication 40 C.): 1.0 mg/mL
Dissolving Capability ([3]; Hexylene glycol, sonication RT): 0.5 mg/mL
Dissolving Capability ([3]; Isopropyl myristate, sonication 40 C.): 75 to 250 mg/mL
Dissolving Capability ([3]; Isopropyl myristate, sonication RT): 10 mg/mL
Dissolving Capability ([3]; Isosorbid-dimethyl ether 98%, sonication 40 C.): 250 mg/mL
Dissolving Capability ([3]; Isosorbid-dimethyl ether 98%, sonication 40 C., listed as Dihydroberberine): 250 mg/mL
Dissolving Capability ([3]; Isosorbid-dimethyl ether 98%, sonication RT): 25.0 mg/mL
Dissolving Capability ([3]; Mineral oil, sonication 40 C.): 4.0 mg/mL
Dissolving Capability ([3]; Mineral oil, sonication RT): 2.0 mg/mL
Dissolving Capability ([3]; Oleyl alcohol, sonication 40 C., listed as Dihydroberberine): 50 mg/mL
Dissolving Capability ([3]; Oleyl alcohol, sonication 40 C., listed as dihydroberberine): 50.0 mg/mL
Dissolving Capability ([3]; Oleyl alcohol, sonication RT): 12.5 mg/mL
Dissolving Capability ([3]; Propanediol, sonication 40 C.): 2.5 mg/mL
Dissolving Capability ([3]; Propanediol, sonication RT): 1.0 mg/mL
Dissolving Capability ([3]; Trivalin, sonication 40 C.): 5.0 mg/mL
Dissolving Capability ([3]; Trivalin, sonication RT): 2.5 mg/mL
Dissolving Capability ([3]; Water, sonication 40 C.): 1.0 mg/mL
Dissolving Capability ([3]; Water, sonication RT): 0.5 mg/mL

CN(C)C(=N)N=C(N)N [Metformin]
rate of weight gain (grams/day) ([4]; BID, Day 0 to 28, n=2): 3.3 grams/day
overall triglyceride levels (mmol/L+/−SEM) ([4]; averaged for the entire experiment): 15.1 ± 0.4 mmol/L
overall HbA1c level change (mmol/mmol+/−SEM) [4, 7]: 34.3+/−0.4 mmol/mmol
overall average food intake (grams+/−SEM) [4, 7]: 33.4+/−0.7 grams
overall cholesterol level change (mmol/L+/−SEM) [4, 7]: 5.0 ± 0.4 mmol/L
overall average glucose change (%+/−SEM) ([4]; non-fasting glucose, averaged over the entire experiment): 5.9+/−5.9%
HbA1c (in words) [5]: largest reduction in HbA1c

CCC(C)(C)C(=O)O[C@H]1C[C@@H](C)C=C2C=C[C@H](C)[C@H](CC[C@@H]3C[C@@H](O)CC(=O)O3)[C@H]21 [Simvastatin]
systemic simvastatin concentration [6]: 1.83 ng/mL

COc1ccc2c(c1OC)CN1CCc3cc4c(cc3C1C2)OCO4 (stereo not shown) [THB, tetrahydroberberine]
expression of PCSK9 in supernatant (western blot) [1]: did not affect expression of PCSK9; also recorded: did not appear to reduce expression of PCSK9
stability over time (oxidation to berberine) [2]: excellent stability in several solvents
